Results published in US4436733A, “4"- And 3-ester derivatives of DMT and DMOT” (Eli Lilly and Company, priority 1982, dated 1984).
Like-named read-outs stand apart in the source and are kept apart here.

Columns and labels:
[1] = test system: Staphylococcus aureus; test: conventional broth-dilution microtiter test, MIC; assay type: cell-based
Protocol: (§1) The MIC's in Table III were determined by standard agar-dilutionassays. The MIC's in Table IV were obtained using a conventional broth-dilution microtiter test.

[2] = test system: Pasteurella multocida 17E; test: conventional broth-dilution microtiter test, MIC; assay type: cell-based; settings: bovine isolate
Protocol: as §1

[3] = test system: Streptococcus sp. 80; test: conventional broth-dilution microtiter test, MIC; assay type: cell-based
Protocol: as §1

[4] = test system: Mycoplasma gallisepticum; test: conventional broth-dilution microtiter test, MIC; assay type: cell-based
Protocol: as §1

[5] = test system: Mycoplasma hyorhinis; test: conventional broth-dilution microtiter test, MIC; assay type: cell-based
Protocol: as §1

[6] = test system: Mycoplasma synoviae; test: conventional broth-dilution microtiter test, MIC; assay type: cell-based
Protocol: as §1

[7] = test system: Pasteurella multocida 60A; test: conventional broth-dilution microtiter test, MIC; assay type: cell-based; settings: avian isolate
Protocol: as §1

[8] = test system: Staphylococcus aureus X400; test: standard agar-dilution assay, MIC; assay type: cell-based; settings: Staphylococcus aureus X400, methicillin resistant strain
Protocol: as §1
^c Methicillinresistant-strain

[9] = test system: Staphylococcus aureus V41; test: standard agar-dilution assay, MIC; assay type: cell-based; settings: Staphylococcus aureus V41, penicillin resistant strain
Protocol: as §1
^b Penicillinresistant strain

[10] = test system: Streptococcus pyogenes C203; test: standard agar-dilution assay, MIC; assay type: cell-based
Protocol: as §1

[11] = test system: Streptococcus pneumoniae Park I; test: standard agar-dilution assay, MIC; assay type: cell-based
Protocol: as §1

[12] = test system: Streptococcus Group D X66; test: standard agar-dilution assay, MIC; assay type: cell-based
Protocol: as §1

[13] = test system: Staphylococcus aureus X1.1; test: standard agar-dilution assay, MIC; assay type: cell-based
Protocol: as §1

[14] = test system: Streptococcus Group 9960; test: standard agar-dilution assay, MIC; assay type: cell-based
Protocol: as §1

[15] = test system: Staphylococcus epidermidis EPI1; test: standard agar-dilution assay, MIC; assay type: cell-based
Protocol: as §1

[16] = test system: Staphylococcus aureus S13E; test: standard agar-dilution assay, MIC; assay type: cell-based
Protocol: as §1

[17] = test system: Staphylococcus epidermidis EPI2; test: standard agar-dilution assay, MIC; assay type: cell-based
Protocol: as §1

[18] = test system: Streptococcus pyogenes C203; test: experimental bacterial infection in mice, ED50; assay type: in vivo; settings: read-out: ED50 (effective dose to protect 50% of the test animals)
Protocol: The ester derivatives of this invention have shown in vivo antimicrobial activity against experimental bacterial infections caused by gram-positivebacteria. When two doses of test compound were administered to mice with experimental infections, the activity observed was measured as an ED50 value [effective dose in mg/kg to protect 50% of the test animals: see Warren Wick, et al., J. Bacteriol. 81, 233-235 (1961)].
^a mg/kg × 2; doses given 1 and 5 hours postinfection

[19] = C203, mice, oral, doses given 1 and 5 hours postinfection
[20] = C203, sc, mice, subcutaneous, doses given 1 and 5 hours postinfection

Row | Compound | MIC (minimal inhibitory concentration) [1] | MIC (minimal inhibitory concentration) [2] | MIC (minimal inhibitory concentration) [3] | MIC (minimal inhibitory concentration) [4] | MIC (minimal inhibitory concentration) [5] | MIC (minimal inhibitory concentration) [6] | MIC (minimal inhibitory concentration) [7] | MIC (minimal inhibitory concentration) [8] | MIC (minimal inhibitory concentration) [9] | MIC (minimal inhibitory concentration) [10] | MIC (minimal inhibitory concentration) [11] | MIC (minimal inhibitory concentration) [12] | MIC (minimal inhibitory concentration) [13] | MIC (minimal inhibitory concentration) [14] | MIC (minimal inhibitory concentration) [15] | MIC (minimal inhibitory concentration) [16] | MIC (minimal inhibitory concentration) [17] | ED50 [18, 19] | ED50 [18, 20] | ED50 ([18]; C203, po)
1 | CCC(=O)OCC1C=C(C)C=CC(=O)C(C)CC(CC=O)C(OC2OC(C)C(OC3CC(C)(O)C(OC(=O)CC)C(C)O3)C(N(C)C)C2OC(C)=O)C(C)C(O)CC(=O)OC1CC (stereo not shown) [Compound 3, 2'-O-Acetyl-23,4"-Di-O-Propionyl-DMT] | 0.78 | 12.5 | 0.78 | 0.097 | 0.39 | 0.78 | 12.5 | 1 | 1 | 0.25 | 0.125 | 1 | 0.5 | 1 | 0.5 | 0.5 | 1 |  |  | 
2 | CCC(=O)OCC1C=C(C)C=CC(=O)C(C)CC(CC=O)C(OC2OC(C)C(OC3CC(C)(O)C(OC(=O)CC)C(C)O3)C(N(C)C)C2O)C(C)C(O)CC(=O)OC1CC (stereo not shown) [Compound 4, 23,4"-Di-O-Propionyl-DMT] | 0.78 | 12.5 | 1.56 | 0.195 | 0.78 | 0.39 | 25 | 1 | 1 | 0.25 | 0.06 | 1 | 0.5 | 0.5 | 0.5 | 0.5 | 1 | > 150 mg/kg | 12 mg/kg | 
3 | CCC1OC(=O)CC(O)C(C)C(OC2OC(C)C(OC3CC(C)(O)C(OC(=O)Cc4ccccc4)C(C)O3)C(N(C)C)C2OC(C)=O)C(CC=O)CC(C)C(=O)C=CC(C)=CC1COC(=O)Cc1ccccc1 (stereo not shown) [Compound 5, 2'-O-Acetyl-23,4"-Di-O-Phenylacetyl-DMT] | 50 | > 50 | 1.56 | 1.56 | 6.25 | 12.5 | > 50 | 2 | 1 |  |  | 2 | 1 | 2 | 1 | 1 | 2 |  |  | > 144 mg/kg
4 | CCC1OC(=O)CC(O)C(C)C(OC2OC(C)C(OC3CC(C)(O)C(OC(=O)COc4ccccc4)C(C)O3)C(N(C)C)C2OC(C)=O)C(CC=O)CC(C)C(=O)C=CC(C)=CC1COC(=O)COc1ccccc1 (stereo not shown) [Compound 7, 2'-O-Acetyl-4",23-Di-O-Phenoxyacetyl-DMT] | 12.5 | > 50 | 0.78 | 0.78 | 0.78 |  | > 50 | 64 | 64 | 8 | 1 | 32 | 32 | 16 | 32 | 32 | 128 |  |  | 
5 | CCC1OC(=O)CC(OC(=O)COc2ccccc2)C(C)C(OC2OC(C)C(OC3CC(C)(O)C(O)C(C)O3)C(N(C)C)C2OC(C)=O)C(CC=O)CC(C)C(=O)C=CC(C)=CC1COC(=O)COc1ccccc1 (stereo not shown) [Compound 8, 2'-O-Acetyl-3,23-Di-O-Phenoxyacetyl-DMT] |  |  |  |  |  |  |  | 1 | 1 | 0.125 | 0.125 | 0.5 | 0.5 | 0.25 | 1 | 0.5 | 1 |  |  | 
6 | CCC(=O)OCC1C=C(C)C=CC(=O)C(C)CC(CC=O)C(OC2OC(C)C(OC3CC(C)(O)C(OC(=O)CC)C(C)O3)C(N(C)C)C2OC(C)=O)C(C)C(OC(=O)CC)CC(=O)OC1CC (stereo not shown) [Compound 9, 2'-O-Acetyl-3,23,4"-Tri-O-Propionyl-DMT] | 1.56 | > 50 | 1.56 | 0.78 | 0.78 | 0.78 | > 50 | 1 | 1 | 0.5 | 0.25 | 1 | 1 | 1 | 1 | 1 | 2 |  |  | 
7 | CCC(=O)OCC1C=C(C)C=CC(=O)C(C)CC(CC=O)C(OC2OC(C)C(OC3CC(C)(O)C(OC(=O)CC)C(C)O3)C(N(C)C)C2O)C(C)C(OC(=O)CC)CC(=O)OC1CC (stereo not shown) [Compound 10, 3,23,4"-Tri-O-Propionyl-DMT] | 1.56 | 25 | 1.56 | ≤ 0.05 | 0.78 | 0.39 | 50 | 1 | 1 | 0.25 | 0.125 | 1 | 0.5 | 1 | 1 | 0.5 | 2 | > 150 mg/kg | 13 mg/kg | 
8 | CCC1OC(=O)CC(O)C(C)C(OC2OC(C)C(OC3CC(C)(O)C(OC(=O)Cc4ccccc4)C(C)O3)C(N(C)C)C2OC(C)=O)C(CC=O)CC(C)C(=O)C=CC(C)=CC1C (stereo not shown) [Compound 20, 2'-O-Acetyl-4"-O-Phenylacetyl-DMOT] | 25 | 50 | 50 | 6.25 | 50 | 50 | 50 | > 128 | > 128 | 128 | 32 | > 128 | > 128 | > 128 | > 128 | > 128 | > 128 |  |  | 
9 | CCC1OC(=O)CC(O)C(C)C(OC2OC(C)C(OC3CC(C)(O)C(OC(=O)Cc4ccccc4)C(C)O3)C(N(C)C)C2O)C(CC=O)CC(C)C(=O)C=CC(C)=CC1C (stereo not shown) [Compound 21, 4"-O-Phenylacetyl-DMOT] | 12.5 | > 50 | 6.25 | 0.78 | 3.12 | 6.25 | 50 | 16 | 16 | 4 | 0.5 | 8 | 8 | 16 | 8 | 8 | 16 |  |  | 
